Laboratory results as given in patent publication US7745483B2, “2-Halofuryl-thienyl-3-carboxamides” (Bayer CropScience AG, priority 2004, dated 2010).

These compounds were tested on Venturia inaequalis (assay: Venturia test (apple)/protective). Conditions: 240 h, protective, application rate 100 g/ha, evaluation 10 days after inoculation, read-out: Efficacy in %.
Type: in vivo
Description: (§1) [table] To produce a suitable preparation of active compound, one part by weight of active compound is mixed with the stated amount of solvent and emulsifier, and the concentrate is diluted with water to the desired concentration. To test for protective activity, young plants are sprayed with the preparation of active compound at the stated application rate. After the spray coating has dried on, the plants are inoculated with an aqueous conidia suspension of the apple scab pathogen Venturia inaequalis and then remain in an incubation cabin at about 20° C. and 100% relative atmospheric humidity for 1 day. The plants are then placed in a greenhouse at about 21° C. and a relative atmospheric humidity of about 90%. Evaluation is carried out 10 days after the inoculation. 0% means an efficacy which corresponds to that of the control, whereas an efficacy of 100% means that no infection is observed.

O=C(Nc1ccccc1-c1ccc(Cl)cc1)c1ccoc1I [drawing 198] and O=C(Nc1ccccc1-c1ccc(Br)cc1)c1ccoc1I [drawing 199] are the same in pest or weed control at 100 g/ha: 100% for the first, 100% for the second.

C[Si](C)(C)CCc1sccc1NC(=O)c1ccsc1I [drawing 221] and C[Si](C)(C)CCc1ccccc1NC(=O)c1ccsc1I [drawing 188] are the same in pest or weed control at 100 g/ha: 100% for the first, 100% for the second.

O=C(Nc1ccc(F)cc1-c1ccc(Cl)c(Cl)c1)c1ccsc1I [drawing 209] and O=C(Nc1ccccc1-c1ccc(Cl)c(Cl)c1)c1ccsc1I [drawing 204] are the same in pest or weed control at 100 g/ha: 100% for the first, 100% for the second.

CC(C)CC(C)c1ccccc1NC(=O)c1ccsc1Br (stereo not drawn) [drawing 215] and CC(C)CC(C)c1ccccc1NC(=O)c1ccsc1I (stereo not drawn) [drawing 185] are the same in pest or weed control at 100 g/ha: 100% for the first, 100% for the second.

O=C(Nc1ccccc1-c1ccc(F)c(Cl)c1)c1ccsc1I [drawing 220] and O=C(Nc1ccccc1-c1ccc(Cl)c(F)c1)c1ccsc1I [drawing 205] are the same in pest or weed control at 100 g/ha: 100% for the first, 100% for the second.

Going from O=C(Nc1ccc(F)cc1-c1cccc(Cl)c1F)c1ccsc1I [drawing 196] to O=C(Nc1ccccc1-c1cccc(Cl)c1F)c1ccsc1I [drawing 195], the pest or weed control at 100 g/ha falls from 100% to 89%.

O=C(Nc1ccccc1-c1ccc(Cl)cc1)c1ccsc1I [drawing 202] and O=C(Nc1ccccc1-c1ccc(Cl)cc1)c1ccsc1Br [drawing 217] are the same in pest or weed control at 100 g/ha: 100% for the first, 100% for the second.

CO/N=C/c1ccc(-c2ccccc2NC(=O)c2ccsc2I)cc1F [drawing 213] and Cc1ccc(-c2ccccc2NC(=O)c2ccsc2I)cc1F [drawing 210] are the same in pest or weed control at 100 g/ha: 100% for the first, 100% for the second.

Compared with O=C(Nc1ccncc1-c1ccc(Cl)c(Cl)c1)c1ccsc1I [drawing 190], O=C(Nc1ccccc1-c1ccc(Br)c(Cl)c1)c1ccsc1I [drawing 193] is higher in pest or weed control at 100 g/ha: 98% for the first, 100% for the second.

Compared with O=C(Nc1ccccc1-c1ccc(Br)c(F)c1)c1ccsc1I [drawing 192], O=C(Nc1ccccc1-c1ccc(Br)cc1)c1ccsc1I [drawing 203] is lower in pest or weed control at 100 g/ha: 100% for the first, 91% for the second.

CC(C)CC(C)c1cc(F)ccc1NC(=O)c1ccsc1I (stereo not drawn) [drawing 212] and CC(C)CC(C)c1sccc1NC(=O)c1ccsc1I (stereo not drawn) [drawing 214] are the same in pest or weed control at 100 g/ha: 100% for the first, 100% for the second.

Going from O=C(Nc1ccccc1-c1ccc(C(F)(F)F)cc1)c1ccsc1I [drawing 208] to O=C(Nc1ccccc1-c1ccc(C(F)(F)F)cc1Cl)c1ccsc1I [drawing 189], the pest or weed control at 100 g/ha falls from 99% to 97%.

Compared with CC(CC(C)(C)C)c1ccccc1NC(=O)c1ccsc1Br (stereo not drawn) [drawing 216], CC(CC(C)(C)C)c1ccccc1NC(=O)c1ccsc1I (stereo not drawn) [drawing 187] is higher in pest or weed control at 100 g/ha: 98% for the first, 100% for the second.

CC1CC(C)(C)c2cccc(NC(=O)c3ccsc3I)c21 (stereo not drawn) [drawing 211] and CC(C[Si](C)(C)C)c1ccccc1NC(=O)c1ccsc1I (stereo not drawn) [drawing 207] are the same in pest or weed control at 100 g/ha: 100% for the first, 100% for the second.

Going from CC(C[Si](C)(C)C)c1ccccc1NC(=O)c1ccoc1I (stereo not drawn) [drawing 206] to CC(CC(C)(C)C)c1ccccc1NC(=O)c1ccoc1I (stereo not drawn) [drawing 186], the pest or weed control at 100 g/ha falls from 99% to 94%.

CC(C)(C)CCc1cc(F)ccc1NC(=O)c1ccsc1I [drawing 197] and O=C(Nc1ccccc1-c1ccc(Br)cc1Cl)c1ccsc1I [drawing 191] are the same in pest or weed control at 100 g/ha: 100% for the first, 100% for the second.

Compared with O=C(Nc1ccccc1-c1ccc(Cl)c(F)c1)c1ccoc1I [drawing 201], O=C(Nc1ccccc1-c1ccc(Cl)c(Cl)c1)c1ccoc1I [drawing 200] is lower in pest or weed control at 100 g/ha: 100% for the first, 99% for the second.

First: O=C(Nc1ccccc1-c1cccc(Cl)c1Cl)c1ccsc1I [drawing 194]
Second: O=C(Nc1ccccc1-c1ccc(Cl)c(Cl)c1)c1ccsc1Br [drawing 218]
The pest or weed control at 100 g/ha of the first is lower: 98% for the first, 100% for the second.

O=C(Nc1ccccc1-c1ccc(Cl)c(F)c1)c1ccsc1Br [drawing 219] was tested, and the pest or weed control at 100 g/ha was 100%.

What follows are compounds tested on Puccinia recondita (assay: Puccinia test (wheat)/protective). Conditions: 240 h, protective, application rate 500 g/ha, evaluation 10 days after inoculation, read-out: Efficacy in %.
Type: in vivo
Description: [table] To produce a suitable preparation of active compound, 1 part by weight of active compound is mixed with the stated amounts of solvent and emulsifier, and the concentrate is diluted with water to the desired concentration. To test for protective activity, young plants are sprayed with the preparation of active compound at the stated application rate. After the spray coating has dried on, the plants are sprayed with a conidia suspension Puccinia recondita. The plants remain in an incubation cabin at 20° C. and 100% relative atmospheric humidity for 48 hours. The plants are then placed in a greenhouse at a temperature of about 20° C. and a relative atmospheric humidity of 80% to promote the development of rust pustules. Evaluation is carried out 10 days after the inoculation. 0% means an efficacy which corresponds to that of the control, whereas an efficacy of 100% means that no infection is observed.

O=C(Nc1ccc(F)cc1-c1ccc(Cl)c(Cl)c1)c1ccsc1I [drawing 277] and CO/N=C/c1ccc(-c2ccccc2NC(=O)c2ccsc2I)cc1F [drawing 280] are the same in pest or weed control at 500 g/ha: 100% for the first, 100% for the second.

CC(C)CC(C)c1ccccc1NC(=O)c1ccsc1I (stereo not drawn) [drawing 260] and CC(C)CC(C)c1ccccc1NC(=O)c1ccsc1Br (stereo not drawn) [drawing 282] are the same in pest or weed control at 500 g/ha: 100% for the first, 100% for the second.

O=C(Nc1ccccc1-c1ccc(Br)cc1)c1ccoc1I [drawing 268] was tested, and the pest or weed control at 500 g/ha was 100%.

These compounds were tested on Sphaerotheca fuliginea (assay: Sphaerotheca test (cucumber)/protective). Conditions: Podosphaera fuliginea, 168 h, protective, application rate 100 g/ha, evaluation 7 days after inoculation, read-out: Efficacy in %.
Type: in vivo
Description: as §1, with “stated amounts” for “stated amount”, “aqueous spore” for “aqueous conidia”, “of Sphaerotheca fuliginea.” for “of the apple scab pathogen Venturia inaequalis and then remain in an incubation cabin at about 20° C. and 100% relative atmospheric humidity for 1 day.”, “about 23°” for “about 21°”, “about 70%.” for “about 90%.”, “out 7” for “out 10”

O=C(Nc1ccccc1-c1ccc(C(F)(F)F)cc1Cl)c1ccsc1I [drawing 155] and O=C(Nc1ccccc1-c1ccc(Br)cc1Cl)c1ccsc1I [drawing 157] are the same in pest or weed control at 100 g/ha: 100% for the first, 100% for the second.

Going from O=C(Nc1ccccc1-c1ccc(Br)c(F)c1)c1ccsc1I [drawing 158] to O=C(Nc1ccccc1-c1ccc(Cl)c(F)c1)c1ccsc1I [drawing 170], the pest or weed control at 100 g/ha falls from 100% to 98%.

O=C(Nc1ccncc1-c1ccc(Cl)c(Cl)c1)c1ccsc1I [drawing 156] and O=C(Nc1ccc(F)cc1-c1ccc(Cl)c(Cl)c1)c1ccsc1I [drawing 173] are the same in pest or weed control at 100 g/ha: 100% for the first, 100% for the second.

Going from CC(C)CC(C)c1ccccc1NC(=O)c1ccsc1I (stereo not drawn) [drawing 152] to CC(C)CC(C)c1ccccc1NC(=O)c1ccsc1Br (stereo not drawn) [drawing 178], the pest or weed control at 100 g/ha rises from 98% to 100%.

Compared with CC(C)(C)CCc1cc(F)ccc1NC(=O)c1ccsc1I [drawing 163], CC(C)CC(C)c1cc(F)ccc1NC(=O)c1ccsc1I (stereo not drawn) [drawing 175] is lower in pest or weed control at 100 g/ha: 100% for the first, 97% for the second.

Compared with CC(CC(C)(C)C)c1ccccc1NC(=O)c1ccsc1I (stereo not drawn) [drawing 154], CC(CC(C)(C)C)c1ccccc1NC(=O)c1ccsc1Br (stereo not drawn) [drawing 179] is lower in pest or weed control at 100 g/ha: 100% for the first, 97% for the second.

O=C(Nc1ccccc1-c1ccc(F)c(Cl)c1)c1ccsc1I [drawing 183] and O=C(Nc1ccccc1-c1ccc(Br)c(Cl)c1)c1ccsc1I [drawing 159] are the same in pest or weed control at 100 g/ha: 100% for the first, 100% for the second.

O=C(Nc1ccc(F)cc1-c1cccc(Cl)c1F)c1ccsc1I [drawing 162] and O=C(Nc1ccccc1-c1cccc(Cl)c1F)c1ccsc1I [drawing 161] are the same in pest or weed control at 100 g/ha: 100% for the first, 100% for the second.

First: C[Si](C)(C)CCc1sccc1NC(=O)c1ccsc1I [drawing 184]
Second: CC(C)CC(C)c1sccc1NC(=O)c1ccsc1I (stereo not drawn) [drawing 177]
The pest or weed control at 100 g/ha of the first is higher: 100% for the first, 92% for the second.

Going from CO/N=C/c1ccc(-c2ccccc2NC(=O)c2ccsc2I)cc1F [drawing 176] to Cc1ccc(-c2ccccc2NC(=O)c2ccsc2I)cc1F [drawing 174], the pest or weed control at 100 g/ha rises from 98% to 100%.

O=C(Nc1ccccc1-c1ccc(Br)cc1)c1ccoc1I [drawing 165] and O=C(Nc1ccccc1-c1ccc(Cl)cc1)c1ccoc1I [drawing 164] are the same in pest or weed control at 100 g/ha: 100% for the first, 100% for the second.

Compared with O=C(Nc1ccccc1-c1ccc(Cl)cc1)c1ccsc1I [drawing 168], O=C(Nc1ccccc1-c1ccc(Br)cc1)c1ccsc1I [drawing 169] is higher in pest or weed control at 100 g/ha: 95% for the first, 100% for the second.

O=C(Nc1ccccc1-c1ccc(Cl)c(Cl)c1)c1ccsc1Br [drawing 181] and O=C(Nc1ccccc1-c1ccc(Cl)c(F)c1)c1ccsc1Br [drawing 182] are the same in pest or weed control at 100 g/ha: 100% for the first, 100% for the second.

First: O=C(Nc1ccccc1-c1ccc(Cl)c(F)c1)c1ccoc1I [drawing 167]
Second: O=C(Nc1ccccc1-c1ccc(Cl)c(Cl)c1)c1ccoc1I [drawing 166]
The pest or weed control at 100 g/ha of the first is lower: 98% for the first, 100% for the second.

First: O=C(Nc1ccccc1-c1ccc(Cl)cc1)c1ccsc1Br [drawing 180]
Second: O=C(Nc1ccccc1-c1ccc(C(F)(F)F)cc1)c1ccsc1I [drawing 172]
The pest or weed control at 100 g/ha of the first is higher: 100% for the first, 93% for the second.

Compared with CC(CC(C)(C)C)c1ccccc1NC(=O)c1ccoc1I (stereo not drawn) [drawing 153], CC(C[Si](C)(C)C)c1ccccc1NC(=O)c1ccoc1I (stereo not drawn) [drawing 171] is higher in pest or weed control at 100 g/ha: 98% for the first, 100% for the second.

O=C(Nc1ccccc1-c1cccc(Cl)c1Cl)c1ccsc1I [drawing 160] showed a pest or weed control at 100 g/ha of 100%.
